Where two headings read alike, the source gives them in different places.
What was measured:
Assay in all cases: biochemical
Type in all cases: biochemical
[1] = biological target: various β-lactamases (bacterial lysates) (Klebsiella pneumoniae, UniProt Q9F663, H272Y)
[2] = biological target: various β-lactamases (bacterial lysates) (Escherichia coli, UniProt A0A649V088); conditions: read-out: AZT IC50 KP1005 CTX-M-14
[3] = biological target: various β-lactamases (bacterial lysates) (Escherichia coli, UniProt A0A5R8T042); conditions: read-out: AZT IC50 KP1009 CTX-M-15
Sequence of various β-lactamases (bacterial lysates) (Escherichia coli, UniProt A0A5R8T042) (A0A5R8T042 29-291): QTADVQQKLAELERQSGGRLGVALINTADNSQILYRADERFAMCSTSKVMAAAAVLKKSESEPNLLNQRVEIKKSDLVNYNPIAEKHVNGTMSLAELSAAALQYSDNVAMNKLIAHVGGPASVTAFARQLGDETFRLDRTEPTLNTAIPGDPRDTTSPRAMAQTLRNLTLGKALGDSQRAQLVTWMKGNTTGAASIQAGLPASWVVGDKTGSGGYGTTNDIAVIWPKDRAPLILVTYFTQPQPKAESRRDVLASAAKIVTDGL

[4] = biological target: various β-lactamases (bacterial lysates) (Klebsiella pneumoniae, UniProt Q9F663); conditions: aztreonam cleavage
Sequence of various β-lactamases (bacterial lysates) (Klebsiella pneumoniae, UniProt Q9F663) (Q9F663 whole entry, looked up): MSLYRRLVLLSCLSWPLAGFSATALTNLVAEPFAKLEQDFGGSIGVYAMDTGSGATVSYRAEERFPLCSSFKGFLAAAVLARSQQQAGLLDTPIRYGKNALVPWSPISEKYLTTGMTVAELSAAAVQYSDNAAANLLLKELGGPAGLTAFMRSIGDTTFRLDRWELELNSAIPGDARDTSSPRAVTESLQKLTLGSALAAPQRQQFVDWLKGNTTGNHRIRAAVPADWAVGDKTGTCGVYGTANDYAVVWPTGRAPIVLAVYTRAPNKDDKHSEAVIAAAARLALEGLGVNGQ

[5] = biological target: various β-lactamases (bacterial lysates) (Salmonella typhimurium, UniProt P0A1V8); conditions: AZT IC50 KPX1001 OXA-2
Sequence of various β-lactamases (bacterial lysates) (Salmonella typhimurium, UniProt P0A1V8) (P0A1V8 22-275): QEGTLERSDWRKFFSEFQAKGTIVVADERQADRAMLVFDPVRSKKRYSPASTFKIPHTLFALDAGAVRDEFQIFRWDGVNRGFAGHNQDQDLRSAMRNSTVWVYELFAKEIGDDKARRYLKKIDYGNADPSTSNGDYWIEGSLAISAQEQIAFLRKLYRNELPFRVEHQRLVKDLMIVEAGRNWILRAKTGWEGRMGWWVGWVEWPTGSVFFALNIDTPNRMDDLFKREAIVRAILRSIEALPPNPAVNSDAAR

[6] = biological target: various β-lactamases (bacterial lysates) (Pseudomonas aeruginosa, UniProt P14489); conditions: AZT IC50 KP1007 OXA-10
Sequence of various β-lactamases (bacterial lysates) (Pseudomonas aeruginosa, UniProt P14489) (P14489 20-266): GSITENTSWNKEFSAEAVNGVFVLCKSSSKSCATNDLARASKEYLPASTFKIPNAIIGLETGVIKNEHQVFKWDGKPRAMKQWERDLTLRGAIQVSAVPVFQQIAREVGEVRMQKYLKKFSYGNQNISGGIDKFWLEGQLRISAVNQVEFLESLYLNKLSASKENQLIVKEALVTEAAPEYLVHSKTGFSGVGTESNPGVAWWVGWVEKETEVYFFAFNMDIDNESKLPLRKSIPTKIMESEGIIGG

[7] = lysate KP1004 KPC-2, read-out: AZT IC50 KP1004 KPC-2 (converted)
[8] = lysate KP1008 KPC-2, read-out: AZT IC50 KP1008 KPC-2

Sequence of various β-lactamases (bacterial lysates) (Escherichia coli, UniProt A0A649V088) (A0A649V088 29-291): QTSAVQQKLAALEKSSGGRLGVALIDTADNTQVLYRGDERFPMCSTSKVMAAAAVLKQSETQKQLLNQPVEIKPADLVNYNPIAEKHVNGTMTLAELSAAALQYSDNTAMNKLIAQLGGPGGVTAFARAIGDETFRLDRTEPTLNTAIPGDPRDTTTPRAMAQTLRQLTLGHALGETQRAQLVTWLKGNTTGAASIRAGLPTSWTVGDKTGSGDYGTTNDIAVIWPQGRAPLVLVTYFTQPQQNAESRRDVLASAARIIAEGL
Sequence of various β-lactamases (bacterial lysates) (Klebsiella pneumoniae, UniProt Q9F663, H272Y) (Q9F663 whole entry H272Y, looked up): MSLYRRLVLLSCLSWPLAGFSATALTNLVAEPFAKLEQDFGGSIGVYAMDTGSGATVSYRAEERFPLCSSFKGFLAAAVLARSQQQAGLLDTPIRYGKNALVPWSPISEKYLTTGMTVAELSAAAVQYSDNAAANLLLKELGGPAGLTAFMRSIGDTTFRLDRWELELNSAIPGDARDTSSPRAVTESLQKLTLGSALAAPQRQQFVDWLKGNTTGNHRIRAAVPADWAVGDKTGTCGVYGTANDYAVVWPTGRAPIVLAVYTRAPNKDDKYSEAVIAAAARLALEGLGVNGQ

SMILES	IC50 [1] [nM]	IC50 [2] [nM]	IC50 [3] [nM]	IC50 [4, 7] [nM]	IC50 [4, 8] [nM]	IC50 [5] [nM]	IC50 [6] [nM]
O=C(O)C[C@@H]1CC[C@H](NC(=O)c2ccc(Cn3cnnn3)cc2)B(O)O1 [Compound 56, 2-((3R,6S)-3-(4-((1H-tetrazol-1-yl)methyl)benzamido)-2-hydroxy-1,2-oxaborinan-6-yl)acetic acid]	< 1390	< 1390	1390 to 5570	< 1390	< 1390	1390 to 5570	> 5570
O=C(O)C[C@@H]1CC[C@H](NC(=O)Cc2ccccn2)B(O)O1 [Compound 57, 2-((3R,6S)-2-hydroxy-3-(2-(pyridin-2-yl)acetamido)-1,2-oxaborinan-6-yl)acetic acid]	< 1710	< 1710	> 6850	< 1710	< 1710	> 6850	> 6850
O=C(O)C[C@@H]1CC[C@H](NC(=O)c2cn(C3CC3)c3cc(N4CCNCC4)c(F)cc3c2=O)B(O)O1 [Compound 58, 2-((3R,6S)-3-(1-cyclopropyl-6-fluoro-4-oxo-7-(piperazin-1-yl)-1,4-dihydroquinoline-3-carboxamido)-2-hydroxy-1,2-oxaborinan-6-yl)acetic acid]	< 1030	1030 to 4110	> 4110	< 1030	< 1030	> 4110	> 4110
C[C@]1(Cn2ccnn2)[C@H](C(=O)N[C@H]2CC[C@@H](CC(=O)O)OB2O)N2C(=O)C[C@H]2S1(=O)=O [Compound 59, 2-[(3R,6S)-2-hydroxy-3-[(2S,3 S,5R)-3-methyl-4,4,7-trioxo-3-(1H-1,2,3-triazol-1-ylmethyl)-4λ^6-thia-1-azabicyclo[3.2.0]heptane-2-amido]-1,2-oxaborinan-6-yl]acetic acid]	1100 to 4390	> 4390	> 4390	1100 to 4390	< 1100	1100 to 4390	> 4390
O=C(O)C[C@@H]1CC[C@H](NC(=O)CCc2nnc(-c3ccccc3)o2)B(O)O1 [Compound 60, 2-((3R,6S)-2-hydroxy-3-(3-(5-phenyl-1,3,4-oxadiazol-2-yl)propanamido)-1,2-oxaborinan-6-yl)acetic acid]	< 1340	1340 to 5360	1340 to 5360	< 1340	< 1340	1340 to 5360	> 5360
Nc1cc(CC(=O)N[C@H]2CC[C@@H](CC(=O)O)OB2O)ccn1 [Compound 61, 2-((3R,6S)-3-(2-(2-aminopyridin-4-yl)acetamido)-2-hydroxy-1,2-oxaborinan-6-yl)acetic acid]	< 1630	1630 to 6510	> 6510	< 1630	< 1630	1630 to 6510	> 6510
CCOC(=O)C[C@@H]1CC[C@H](NC(=O)Cc2cccs2)B(O)O1 [Compound 65, ethyl 2-((3R,6S)-2-hydroxy-3-(2-(thiophen-2-yl)acetamido)-1,2-oxaborinan-6-yl)acetate]	> 6150	1540 to 6150	> 6150	1540 to 6150	1540 to 6150	1540 to 6150	> 6150
O=C(O)C[C@@H]1CC[C@H](NC(=O)Cc2cc(F)cc(F)c2)B(O)O1 [Compound 66, 2-((3R,6S)-3-(2-(3,5-difluorophenyl)acetamido)-2-hydroxy-1,2-oxaborinan-6-yl)acetic acid]	< 1530	1530 to 6110	> 6110	< 1530	< 1530	< 1530	> 6110

Source: patent publication US11090319B2, “Therapeutic uses of pharmaceutical compositions comprising cyclic boronic acid ester derivatives” (Melinta Subsidiary Corp., priority 2010, dated 2021)
